In patent US9540389B2, “Antimicrobial potentiators” (priority 2013, dated 2017):

Key:
E. coli AB1157 ΔacrF = assay: Time-kill assay (CIP and/or EPI); assay type: cell-based, Escherichia coli; details: 25 μM MBX2319 + 1×MIC CIP, 2 hours
Protocol: (§1) Panel (C): Bactericidal activity of CIP alone, 25 μM MBX2319 alone, or 25 μM MBX2319 combined with a bacteriostatic concentration of CIP against E. coli AB1157 and isogenic efflux defective mutants after 2 hours exposure. […] Panel (D): Bactericidal activity of CIP alone, 25 μM MBX2319 alone, 25 μM PAβN alone, and a bacteriostatic concentration of CIP combined with 25 μM MBX2319 or combined with 25 μM PAβN against the following organisms: a) E. coli AB1157, b) E. coli ATCC 25922, c) K. pneumoniae ATCC 700603, d) S. flexneri ATCC 12022, e) S. enterica ATCC 14028, f) E. aerogenes ATCC 13048.
(§2) • Strains and Reagents. The following strains were obtained from the Keio collection (Baba, et al.: Construction of Escherichia coli K-12 in-frame, single-gene knockout mutants: the Keio collection. In Mol Syst Biol, vol. 2, pp. 2006 0008, (2006)): JW0451 (ΔacrB::kan), JW5503 (ΔtolC::kan), JW3234 (ΔacrF::kan), JW2661 (ΔemrB::kan), JW0863 (ΔmacB::kan). The deletion mutations in each of these strains were transferred to AB1157 using P1 phage transduction (see Table 1). The construction of the E. coli cell-based reporter strain (SOS-XXX) that was used for high throughput screening is described in detail in the supplementary information. […] Irgasan was a generous gift from Ciba Speciality Chemicals, Inc. (High Point, N.C.). Hoechst 33342 (H33342) was purchased from Molecular Probes (Eugene, Oreg.). […] Luria Broth (Miller) and agar were purchased as prepared dehydrated media from Becton Dickenson (Franklin Lakes, N.J.). The compound libraries used in high-throughput screens were purchased from Chembridge (San Diego, Calif.), ChemDiv (San Diego, Calif.), and TimTec (Newark, Del.). MBX2319 was synthesized by Microbiotix, Inc. • Antibacterial Activity Assays. The minimal inhibitory concentration (MIC) of antibacterial agents and biocides were determined using the microbroth dilution method essentially as described in the CLSI protocol M7-A7 (CLSI: Method for dilution antimicrobial susceptibility testing for bacteria that grow aerobically; Approved standard-document M7-A7. In Clinical and Laboratory Standards Institute document M7-A7, Clinical and Laboratory Standards Institute, Wayne, Pa., (2006)), with the following exceptions. LB media was used instead of MHB. […] The final concentration of DMSO in each assay was 2%. […] MIC assays were performed in triplicate and the geometric mean was calculated. […] Viability was monitored over 2-4 hours by making serial dilutions in saline and spotting 5 μl of each dilution onto the surface of an LB agar plate in triplicate. Colonies were counted after the plates were incubated at 37° C. for 16-18 hr, colony forming units (CFU) per ml were calculated, and the average and standard deviation for the three replicates was determined. […]

E. coli AB1157 = assay: Time-kill assay (CIP and/or EPI); assay type: cell-based, Escherichia coli
Protocol: as §1, §2

CC1(C)Cc2c(C#N)c(SCCc3ccccc3)nc(N3CCOCC3)c2CO1 [MBX2319]
potentiation of the bactericidal activity of CIP (E. coli AB1157 ΔacrF): potentiated the bactericidal activity of CIP | decreased viability (CFU/ml) as compared to 1×MIC CIP alone (E. coli AB1157; 3.13 μM MBX2319 + […] CIP, 4 hr exposure): 10,000 fold | effect on bactericidal activity of […] CIP (1×MIC) (E. coli AB1157; MBX2319 up to 3.13 μM, dose-dependent, PAβN as high as 100 μM): increased the bactericidal activity | effect on growth, compound alone (E. coli AB1157; alone at concentrations up to 50 μM): did not affect growth
